*1 amine or outer side, *2 acyl side, *3 side chain or, on linkers, in order; H or OH if unused. Where a SMILES comes first, the peptide text is derived from it. [ ]: non-standard residue; d: D form. The star is where a group is joined. Dolaproine = CO[C@@H]([C@@H]1CCCN1)[C@@H](C)C(=O)O; Phe(F5) = N[C@@H](Cc1c(F)c(F)c(F)c(F)c1F)C(=O)O; Dil = CC[C@H](C)[C@H](NC)[C@@H](CC(=O)O)OC; PABC = O=C(OCc1ccc(N[*:1])cc1)[*:2]; X1 = C[C@@H](N*)[C@@H](O)c1ccccc1; Cit = NC(=O)NCCC[C@H](N)C(=O)O; NMeV = CN[C@H](C(=O)O)C(C)C; ClZ = O=C(OCc1ccccc1Cl)*
Experiments:
Cathepsin S [1] = biological target: T1, Cathepsin S (Homo sapiens, UniProt P25774); test: Prodrug cleavage / MMAE release by LC-MS, cathepsin S; format: biochemical; details: prodrug 50 μM, pH 5.5, 37 °C, 0-120 min
T1 construct: made in house
Protocol: Cleavage assays were conducted at 37 °C in 1 mL reaction volumes using acetate buffer composed of 100 mM sodium acetate (pH 5.5), 100 mM NaCl, 1 mM EDTA, and 5 mM DTT. Buffers were prepared at room temperature and equilibrated before use. Prodrugs were initially dissolved in DMSO at a stock concentration of 10 mM, then diluted into the reaction buffer to a final concentration of 50 μM, maintaining a DMSO concentration below 0.5% (v/v). Reactions were initiated by the addition of recombinant cathepsin and carried out in glass LC-MS vials incubated at 37 °C. At specified time points (0, 5, 30, 60, and 120 min), aliquots were taken and directly injected into the LC-MS system without further processing. Quantification of MMAE release was based on absorbance at 220 nm. The area under the MMAE peak was integrated, and the amount of released MMAE was plotted as a function of time. Each time point was measured in triplicate, and results are presented as mean ± standard deviation (SD). A standard curve was prepared using free MMAE at concentrations of 1, 5, 10, 20, and 50 μM to enable accurate quantification of MMAE released from the prodrugs.

Cathepsin S [2] = biological target: T1, Cathepsin S; test: Second-order rate constants of inhibition (kobs/[I]), cathepsin S; format: biochemical; details: for kobs/[I] Cath S / Selectivity S to B / Selectivity S to V: Figure 4D; for kobs/[I] Cath S: Cy5- and BODIPY-labeled probes; for Selectivity S to B / Selectivity S to V: calculated from kobs/[I]; for Selectivity S to B: cathepsin S over cathepsin B; for Selectivity S to V: cathepsin S over cathepsin V
Protocol: (§1) All kinetic studies were performed using an fMax fluorescence plate reader (Molecular Devices) in kinetic mode with 96- or 384-well plates. ACC fluorescence was monitored at excitation and emission wavelengths of 355 and 460 nm, respectively. Recombinant human cysteine cathepsins L, V, B, K, and S were expressed and purified as previously described. Prior to use, all cysteine cathepsins were titrated with E64 to normalize enzymatic activity. Assays for cathepsins were conducted in 100 mM sodium acetate buffer containing 10 mM NaCl and 10 mM DTT (pH 5.5). Breast cancer cell lysates (BT-474, MCF-7, MDA-MB-231) were prepared by culturing cells to confluence in the appropriate media, replacing media with PBS, and harvesting the cells using a cell scraper (without trypsin). The cells were pelleted by centrifugation (400 × g, 5 min), resuspended in PBS, and centrifuged again under the same conditions. After removal of the supernatant, the pellet was resuspended in cathepsin assay buffer (excluding DTT) and sonicated. Lysates were then clarified by centrifugation (12,000 × g, 5 min), and the supernatants were collected and stored at −80 °C until use. All enzymatic assays, including HyCoSuL library screening and kinetic analyses of synthetic substrates, inhibitors, probes and prodrugs, were conducted at 37 °C and repeated at least three times. Mean values are reported. Kinetic data were analyzed using GraphPad Prism software (version 10.4.1).
(§2) The second-order rate constants of inhibition (k obs/[I]) were determined for human recombinant cathepsins S, B, L, and V using their respective assay buffers. All measurements were performed under pseudo-first-order kinetic conditions, as previously described. Inhibitors or ABPs were serially diluted in assay buffer and transferred to a 96-well plate. Each well was supplemented with the fluorogenic substrate Cbz-Phe-Arg-AMC at a final concentration of 25 μM and preincubated for 15 min. In parallel, enzymes were preactivated in assay buffer for 15 min at room temperature. Following preincubation, the activated enzymes were added to the wells, and fluorescence was monitored immediately for 30 min. The k obs/[I] values (M^-1S^-1) were calculated from the progress curves and averaged from at least three independent experiments. Final inhibitor (or ABP) concentrations were maintained at a minimum of 5-fold excess relative to enzyme concentrations to ensure pseudo-first-order conditions. Results were analyzed in GraphPad Prism and are reported as mean ± standard deviation.

Cathepsin L [3] = biological target: T2, Cathepsin L (Homo sapiens, UniProt P07711); test: Second-order rate constants of inhibition (kobs/[I]), cathepsin L; format: biochemical; details: for kobs/[I] Cath L: Figure 4D, Cy5- and BODIPY-labeled probes
T2 construct: made in house
Protocol: as §1, §2

Cathepsin B [4] = biological target: T3, Cathepsin B (Homo sapiens, UniProt P07858); test: Second-order rate constants of inhibition (kobs/[I]), cathepsin B; format: biochemical; design: made in house; details: for kobs/[I] Cath B: Figure 4D, Cy5- and BODIPY-labeled probes
Protocol: as §1, §2

[5] = biological target: T4, active cathepsin S in MDA-MB-231 live cells (Homo sapiens, UniProt P25774); test: Labeling of active cathepsin S in MDA-MB-231 live cells with Cy5 probes; format: cell-based; details: inhibitor 25 μM for 2 h, then OG-233 or OG-234 for 24 h
T4 construct: endogenous in cells; host or cells: MDA-MB-231
Protocol: 50,000 of MDA-MB-231 cells were seeded into 12-well plate and allowed to attach overnight. The next day, OG-233 and OG-234 probes (1 μM final concentration) were added to the cells and incubated for various times (from 0,5 h up to 24 h). Control cells were preincubated with cathepsin S inhibitors (JN1, JN4, JN7) at 25 μM for 2 h, and then incubated with OG-233 or OG-234 probes for 24 h. Next, cells were harvested and prepared for SDS-PAGE analysis as described in the above section. Electrophoresis was run for 25 min (4−12% Bis-Tris Plus 10-well gel, 200 V). Next, proteins were transferred onto the membrane (0.2 μm nitrocellulose membrane, 10 V, 60 min) and Ponceau S was used to verify equal loading and transfer. Membranes were then blocked with 5% BSA in TBS-T buffer for 1 h at RT. Membranes were next incubated anticathepsin S antibody (1:1,000, overnight, 4 °C), and the next day with a secondary antibody (IRDye 800CW, donkey anti-Goat) for 30 min at RT, and scanned at 680 and 800 nm using the Sapphire biomolecular imager (Azure Biosystems) to detect the Cy5 probes and cathepsin S. All images were analyzed with Image Studio software.

Cathepsin S [6] = biological target: T1, Cathepsin S; test: Fluorogenic ACC substrate hydrolysis kinetics, cathepsin S; format: biochemical; design: kcat Cathepsin S: unit not given here; details: third-generation substrates, steady-state; for Km: Table S5; for kcat Cathepsin S: Table S6
Protocol: as §1
(§3) Peptide substrates for cathepsin S were designed based on P4-P1 specificity profiling and synthesized on Rink amide resin using standard Fmoc solid-phase peptide synthesis protocols. The resin was swollen in dichloromethane (DCM) and deprotected with 20% piperidine in DMF. Fmoc-ACC-OH was coupled twice using HOBt/DIC in DMF and allowed to react overnight. Subsequent Fmoc-protected amino acids were coupled sequentially using HATU and 2,4,6-collidine, with Fmoc deprotection after each step using 20% piperidine in DMF. Following chain assembly, the N-terminus was acetylated using AcOH/HBTU/DIPEA in DMF for 45 min. Peptides were cleaved from the resin using TFA/TIPS/H2O (95:2.5:2.5, v/v/v) for 2 h, precipitated in cold diethyl ether, lyophilized, and purified by preparative HPLC. […] Final compounds were dissolved in DMSO at 20 mM and stored at −80 °C. To evaluate substrate selectivity, each fluorogenic peptide (10 μM) was incubated with recombinant cysteine cathepsins (5 nM) in assay buffer at 37 °C. Fluorescence emission was recorded at 460 nm, and initial cleavage rates were reported as relative fluorescence units per second (RFU/s). For selected substrates, detailed kinetic parameters (k cat, KM, and k cat/KM) were determined as previously described.

Cathepsin L [7] = biological target: T2, Cathepsin L; test: Fluorogenic ACC substrate hydrolysis kinetics, cathepsin L; format: biochemical; design: kcat Cathepsin L: unit not given here; details: third-generation substrates, steady-state; for Km: Table S5; for kcat Cathepsin L: Table S6
Protocol: as §1, §3

Cathepsin V [8] = biological target: T5, Cathepsin V (Homo sapiens, UniProt O60911); test: Fluorogenic ACC substrate hydrolysis kinetics, cathepsin V; format: biochemical; design: kcat Cathepsin V: unit not given here; details: third-generation substrates, steady-state; for Km: Table S5; for kcat Cathepsin V: Table S6
T5 construct: made in house
Protocol: as §1, §3

Cathepsin B [9] = biological target: T3, Cathepsin B; test: Fluorogenic ACC substrate hydrolysis kinetics, cathepsin B; format: biochemical; design: made in house; kcat Cathepsin B: unit not given here; details: third-generation substrates, steady-state; for Km: Table S5; for kcat Cathepsin B: Table S6
Protocol: as §1, §3

Cathepsin V [10] = biological target: T5, Cathepsin V; test: Second-order rate constants of inhibition (kobs/[I]), cathepsin V; format: biochemical; details: Figure 4D; Cy5- and BODIPY-labeled probes
Protocol: as §1, §2

T1 sequence (P25774 115-331): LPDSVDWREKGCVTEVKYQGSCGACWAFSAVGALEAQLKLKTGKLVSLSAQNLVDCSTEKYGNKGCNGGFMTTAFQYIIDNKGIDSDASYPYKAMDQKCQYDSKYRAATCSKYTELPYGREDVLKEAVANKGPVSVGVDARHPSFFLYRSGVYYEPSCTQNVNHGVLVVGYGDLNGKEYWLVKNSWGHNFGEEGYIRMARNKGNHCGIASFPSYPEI
T5 sequence (O60911 114-334): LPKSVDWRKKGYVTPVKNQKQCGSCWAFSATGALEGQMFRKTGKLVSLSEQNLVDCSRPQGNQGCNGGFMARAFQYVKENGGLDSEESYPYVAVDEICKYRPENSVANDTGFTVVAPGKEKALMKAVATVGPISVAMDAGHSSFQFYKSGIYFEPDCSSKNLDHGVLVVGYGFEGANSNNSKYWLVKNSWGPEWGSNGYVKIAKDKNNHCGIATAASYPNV
T2 sequence (P07711 114-333): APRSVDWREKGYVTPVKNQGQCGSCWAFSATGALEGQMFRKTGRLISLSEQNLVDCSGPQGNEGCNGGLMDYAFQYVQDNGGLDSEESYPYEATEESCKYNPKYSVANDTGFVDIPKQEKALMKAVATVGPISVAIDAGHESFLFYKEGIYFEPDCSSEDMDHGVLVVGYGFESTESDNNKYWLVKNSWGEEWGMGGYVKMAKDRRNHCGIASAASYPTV
T4 sequence (P25774 115-331): as the sequence (P25774 115-331) above

CC[C@H](C)[C@@H]([C@@H](CC(=O)N1CCC[C@H]1[C@H](OC)[C@@H](C)C(=O)N[C@H](C)[C@@H](O)c1ccccc1)OC)N(C)C(=O)[C@@H](NC(=O)[C@H](C(C)C)N(C)C(=O)OCc1ccc(NC(=O)[C@@H](CCC(=O)OC)NC(=O)[C@H](CCCCNC(=O)OCc2ccccc2Cl)NC(=O)[C@H](CCCNC(N)=O)NC(=O)[C@H](Cc2c(F)c(F)c(F)c(F)c2F)NC(C)=O)cc1)C(C)C [313D, Ac-Phe(F5)-Cit-Lys(2ClZ)-DGlu(Me)-PABC-MMAE] (Ac-[Phe(F5)][Cit]K(ClZ)[dE](OMe)[PABC][NMeV]V[Dil][Dolaproine]-X1; N-terminus and C-terminus assumed)
cleavage / free MMAE release by cathepsin S (Cathepsin S [1]): remained stable

CC(C)C[C@H](NC(=O)[C@H]1O[C@@H]1C(=O)O)C(=O)NCCCCN=C(N)N [E-64, reference compound]
kinact/KI (Cathepsin S [2]; pH 5.5, Table S8, AOMK inhibitors, pseudo-first-order conditions): 132000 M⁻¹ s⁻¹ | kinact/KI (Cathepsin L [3]; pH 5.5, read-out: kobs/[I] Cathepsin L): 65100 M⁻¹ s⁻¹ | kinact/KI (Cathepsin B [4]; pH 5.5, read-out: kobs/[I] Cathepsin B): 81200 M⁻¹ s⁻¹

CC[C@H](C)[C@@H]([C@@H](CC(=O)N1CCC[C@H]1[C@H](OC)[C@@H](C)C(=O)N[C@H](C)[C@@H](O)c1ccccc1)OC)N(C)C(=O)[C@@H](NC(=O)[C@H](C(C)C)N(C)C(=O)OCc1ccc(NC(=O)[C@H](CCC(=O)OC)NC(=O)[C@H](CCCCNC(=O)OCc2ccccc2Cl)NC(=O)[C@H](CCCNC(N)=O)NC(=O)[C@H](Cc2c(F)c(F)c(F)c(F)c2F)NC(C)=O)cc1)C(C)C [compound 313, Ac-Phe(F5)-Cit-Lys(2ClZ)-Glu(Me)-PABC-MMAE] (Ac-[Phe(F5)][Cit]K(ClZ)E(OMe)[PABC][NMeV]V[Dil][Dolaproine]-X1; N-terminus and C-terminus assumed)
cleavage / free MMAE release by cathepsin S (Cathepsin S [1]): selectively and efficiently hydrolyzed only by cathepsin S

Ac-Met(O2)-Cit-NptGly-Glu(Me)-AOMK [JN-1]
effect of inhibitor pretreatment on probe binding [5]: did not influence probe binding

Ac-Phe(F5)-Cit-Lys(2ClZ)-Glu(Me)-AOMK [JN-7]
effect of inhibitor pretreatment on probe binding [5]: did not influence probe binding

Ac-Phe(F5)-Thz-2Aoc-Gln-ACC [OG-200]
Km (Cathepsin S [6]): 1.63 µM | kcat Cathepsin S (Cathepsin S [6]): 0,15 | Km (Cathepsin L [7]): 15.9 µM | kcat Cathepsin L (Cathepsin L [7]): 0,02 | Km (Cathepsin V [8]): 4.31 µM | kcat Cathepsin V (Cathepsin V [8]): 0,20 | Km (Cathepsin B [9]): 20.3 µM | kcat Cathepsin B (Cathepsin B [9]): 0,30

Ac-Phe(F5)-Thz-2Aoc-Glu(Me)-ACC [OG-201]
Km (Cathepsin S [6]): 3.04 µM | kcat Cathepsin S (Cathepsin S [6]): 0,65 | Km (Cathepsin L [7]): 12.1 µM | kcat Cathepsin L (Cathepsin L [7]): 0,03 | Km (Cathepsin V [8]): 11.2 µM | kcat Cathepsin V (Cathepsin V [8]): 0,29 | Km (Cathepsin B [9]): 15.8 µM | kcat Cathepsin B (Cathepsin B [9]): 0,46

BODIPY-PEG(4)-Met(O2)-Cit-NptGly-Glu(Me)-AOMK [OG-236]
kobs/[I] Cath S (Cathepsin S [2]): 78,300 M^-1s^-1 | Selectivity S to B (Cathepsin S [2]): 21 | Selectivity S to V (Cathepsin S [2]): 36 | kobs/[I] Cath L (Cathepsin L [3]): < 500 M⁻¹ s⁻¹ | kobs/[I] Cath V (Cathepsin V [10]): 2,170 M^-1s^-1 | kobs/[I] Cath B (Cathepsin B [4]): 3,800 M^-1s^-1

BODIPY-PEG(4)-Phe(F5)-Cit-Lys(2ClZ)-Glu(Me)-AOMK [OG-235]
kobs/[I] Cath S (Cathepsin S [2]): 1,140,000 M^-1s^-1 | Selectivity S to B (Cathepsin S [2]): 148 | Selectivity S to V (Cathepsin S [2]): 695 | higher potency than the unlabeled parent inhibitor (Cathepsin S [2]; cathepsin S kobs/[I], probe vs parent inhibitor): over 2 fold | selectivity for cathepsin S over cathepsin L (Cathepsin S [2]; kobs/[I] based): > 2000 fold | selectivity for cathepsin S over cathepsin V (Cathepsin S [2]; kobs/[I] based): > 500 fold | kobs/[I] Cath L (Cathepsin L [3]): < 500 M⁻¹ s⁻¹ | kobs/[I] Cath V (Cathepsin V [10]): 1,640 M^-1s^-1 | kobs/[I] Cath B (Cathepsin B [4]): 7,700 M^-1s^-1

Source: article PMC13403234, “Engineering Cathepsin S Selective Chemical Probes and Antibody−Drug Conjugates through Substrate Profiling with Unnatural Amino Acids” (Journal of Medicinal Chemistry, 2026)
